Values of other authors, collected in patent publication US7838668B2, “Method for crystallizing sucralose” (JK Sucralose Inc., priority 2006, dated 2010).

Details: relative to sucrose; background statement, no test described

Compound: OC[C@H]1O[C@H](O[C@]2(CCl)O[C@H](CCl)[C@@H](O)[C@@H]2O)[C@H](O)[C@@H](O)[C@H]1Cl [sucralose]
- sweetness: 600 times of sucrose
